The conditions of data set [1]: Shinonaga et al. 2009; cited from earlier work.
The target in data set [2] is T1, Wnt5a (Mus musculus, UniProt P22725).
T1 construct: from tissue; host or cells: eye of living mice (Schlemm's canal / anterior chamber)
T1 sequence (P22725 62-380): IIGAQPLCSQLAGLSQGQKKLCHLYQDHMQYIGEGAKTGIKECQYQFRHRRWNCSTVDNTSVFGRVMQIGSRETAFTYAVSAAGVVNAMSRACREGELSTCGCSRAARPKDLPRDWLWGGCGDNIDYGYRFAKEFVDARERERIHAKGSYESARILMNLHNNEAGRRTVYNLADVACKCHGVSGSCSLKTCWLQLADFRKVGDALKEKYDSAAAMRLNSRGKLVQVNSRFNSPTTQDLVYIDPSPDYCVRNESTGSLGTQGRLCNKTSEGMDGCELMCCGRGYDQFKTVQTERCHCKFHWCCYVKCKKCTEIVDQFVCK
The data set can be described thus: Mouse model of pathogenic IOP, inhibitor delivered by eye drops. Type of data set: in vivo.
Protocol: In one protocol subconjuctival injection of siRNA is performed as described by Yuen et al. (2014, Invest Ophthalmol Vis Sci. 2014; 55:3320-3327). Mice are randomly selected to receive subconjunctival injection of 5 uL (0.2 1g/uL) siRNA or control twice a week for 2 weeks. In a second protocol intracameral injection of siRNA is performed as described by Tam et al. (2017, Scientific Reports 7, 40717). Mice are anaesthetized by intra-peritoneal injection, and pupils are dilated. A pulled blunt-ended micro-glass needle is first used to puncture the cornea to withdraw aqueous humour Immediately after puncture, a pulled blunt-ended micro-glass needle attached to a 10 μl syringe is inserted through the puncture, and 1.5 μl of PBS containing 1 μg siRNA is administered into the anterior chamber. Contralateral eyes receive an identical injection of 1.5 μl containing the same concentration of scrambled siRNA.

A further data set deals with WNT-5A. The conditions noted are these: Shinonaga et al. 2009; cited from earlier work.
In data set [3] the target is T2, Wnt5a (Oryctolagus cuniculus, UniProt Q27Q52).
T2 construct: New Zealand White rabbits receive a topical administration; from tissue; host or cells: eye of living New Zealand White rabbits
T2 sequence (Q27Q52 62-380): T1 sequence (P22725 62-380)
The data set can be described thus: Rabbit model of pathogenic IOP, inhibitor delivered by eye drops. It counts as in vivo.
Description: To assess the effect of siRNA delivered by eye drops on IOP, we developed an additional protocol based on the methods of Martinez et al. (Mol Ther. 2014 January; 22(1):81-91), wherein New Zealand White rabbits receive a topical administration of either 20 nmol/day of siRNA or phosphate-buffered saline (PBS) over a period of 4 consecutive days.

On to 6,7-dihydro-10alpha-hydroxy radicicol, for which the toxicity entry in data set [1] is listed as “relatively low toxicity”. The “therapy of pathogenic IOP” value at Wnt5a [2] and on Wnt5a [3] was “effective therapies for pathogenic IOP” each time. Further, the WNT-5A expression inhibition result in the data set with WNT-5A is listed as “potent WNT-5A expression inhibitor”.

The values are drawn from patent US20240124538A1, “Modulation of Wnt5a to Treat Glaucoma” (The Regents of the University of California, priority 2017, published 2024).
